Measurements as given in US20090111836A1, “Angular Pyranocoumarins, Process for Preparation and Uses Thereof” (CITY UNIVERSITY OF HONG KONG, priority 2007, published 2009).
Entries after “also recorded” stand apart in the source; their conditions may differ.

Experiments:
Assay type in all cases: cell-based, human
HepG2-DR cells [1] = assay: SRB growth inhibition assay, HepG2-DR; conditions: IC50 HepG2-DR / IC50 HepG2
Experimental: K562, K562-DR, HepG2, HepG2-DR were cultured in RPMI-1640 medium containing 10% fetal bovine serum and 100 U/mL, antibiotics. […] Drug test: […] New calorimetric cytotoxicity assay for anticancer-drug screening. […] Mosmann T. Rapid colorimetric assay for cellular growth and survival: application to proliferation and cytotoxicity assays. […] Gerlier D, Thomasset N. […] Each growth inhibition experiment must be repeated three times and results are expressed as mean±standard deviation (SD). Solvents and media were included as blank control. In SRB assay, cells are inoculated at 5000 cells/well in a 96-well microplate and incubated overnight to let cells adhere. Drug treatment lasts for 72 hours and cells are fixed for 1 hour at 4° C. with 50 μl ice-cold 15% trichloroacetic acid and washed with triple-distilled water 5 times. […] The protein-bound dye is dissolved in 100 μl per well of 10 mM Tris base (pH 10.5). The color intensity of SRB, which positively correlate to cell number in preliminary experiments, is estimated at OD 515 nm.

P-gp [2] = assay: Immunoblotting analysis of P-gp expression, HepG2-DR; conditions: 4 μM, 72 hours
Experimental: (§1) Immunoblotting analysis of P-gp expression: cells were treated with 4 μM of cis-DMDCK, 4 μM of cis-DMDBK, 4 μM of trans-DMDCK, or 4 μM of trans-DMDBK for 72 hours. Treated cells were collected and mixed well in ice-cold lysis buffer (50 mM Tris pH7.4, 100 mM NaCl, 2 mM EDTA, 1% sodium deoxycholate, 0.1% SDS, 1% triton X-100, 2 mM PMSF, 1% aprotinin) for 30 minutes and then centrifuged to get the total protein. Protein concentration was determined using Bradford assay. In this experiment, 50 μg total protein was separated by 8% SDS-PAGE and electro-transferred to nitrocellulose membranes. The membrane was blocked by 5% skim milk/0.1% Tween-20/TBS (10 mM Tris pH7.5, 100 mM NaCl), and then incubated with anti-P-pg antibody for 1 hour, followed by horseradish-peroxidase-conjugated secondary antibody for another 1 hour. Protein bands were detected by the ECL method.

P-gp [3] = assay: Immunoblotting analysis of P-gp expression, K562-DR; conditions: 4 μM, 72 hours
Experimental: as §1

HepG2-DR cells [4] = assay: Cell cycle distribution by flow cytometry (doxorubicin-induced G2/M arrest), HepG2-DR; conditions: HepG2-DR; for Cell cycle distribution, G0/G1 / Cell cycle distribution, G2/M / Cell cycle distribution, S / Cell cycle distribution, SubG1: 48 h; for Concentration of test compound that reduced the effective doxorubicin concentration (G2/M arrest) from 50 to 1 μM: combination with doxorubicin
Experimental: 1.2 Instruments: FACSCAN flow cytometry (Becton Dickinson Immunocytometry Systems, San Jose, Calif.), the obtained data were analyzed using the software of Macintosh CellQuest.
1.3 Cell lines: HepG2, HepG2-DR.
1.4 Drug treatment: HepG2 and HepG2-DR cells were respectively treated with each of cis-DMDCK, cis-DMDBK, trans-DMDCK, trans-DMDBK and doxorubicin for 48 hours, or treated respectively with the combination of doxorubicin and one of cis-DMDCK, cis-DMDBK, trans-DMDCK, trans-DMDBK for 48 hours.
1.5 Treatment and detection of sample cells: after washed twice by ice-cold PBS, the cells were fixed with 70% ethanol at −20° C. overnight. The fixed cells were washed by PBS once and resuspended in 1 mL of PBS containing 100 μg/mL RNAase A and incubated at 37° C. for 30 minutes. Finally, propidium iodide solution (final concentration is 40 μg/mL,) was added to bind with DNA and incubated at room temperature for 5-10 minutes. Cells were analyzed by FACSCAN flow cytometry immediately.

HepG2-DR cells [5] = assay: Reversal of multidrug resistance (fold decrease of anticancer drug IC50), HepG2-DR
Experimental: Cells and cell culture: cell lines used in the experiments are human hepatoma cell line (HepG2), human leukemia cell line (K562), human epidermoid carcinoma cell line (KB-3-1) and their multidrug resistant sublines HepG2-DR, K562-DR. and KB V1. The culture conditions for all cells are following: at 37° C. and 5% CO2), KB-3-1 and KBV1 were cultured in MEM medium containing 10% fetal bovine serum and 100 U/mL antibiotics; K562, K562-DR, HepG2, HepG2-DR were cultured in RPMI-1640 medium containing 10% fetal bovine serum and 100 U/mL, antibiotics. For maintaining the phenotypic characteristics of multidrug resistance, 1.2 μM and 0.1 μM doxorubicin were respectively added into the mediums of HepG2-DR and K562-DR; 200 ng/mL vinblastine was added into the medium of KBV1. Drug resistant cells were grown in drug free medium for at least 7 days before test.
Each growth inhibition experiment must be repeated three times and results are expressed as mean±standard deviation (SD). Solvents and media were included as blank control.
In SRB assay, cells are inoculated at 5000 cells/well in a 96-well microplate and incubated overnight to let cells adhere. Drug treatment lasts for 72 hours and cells are fixed for 1 hour at 4° C. with 50 μl ice-cold 15% trichloroacetic acid and washed with triple-distilled water 5 times. Cellular protein is stained by adding 50 μl of 0.4% SRB in 1% acetic acid for 10 minutes, rinsed with 1% acetic acid 5 times and air-dried. The protein-bound dye is dissolved in 100 μl per well of 10 mM Tris base (pH 10.5). The color intensity of SRB, which positively correlate to cell number in preliminary experiments, is estimated at OD 515 nm.
1. Materials and methods: the same with I.
To evaluate the multidrug resistance reversing ability of (±)-Praeruptorin A derivatives, IC50 values of anticancer drugs in the presence and absence of cis-DMDCK, cis-DMDBK, trans-DMDCK, or trans-DMDBK at certain concentration were determined in HepG2-DR, K562-DR and KB V1 cells. The fold decrease of IC50 value of an anticancer drug in certain cell line achieved by a test compound is calculated (fold decrease=IC50 of an anti-tumor drug alone/IC50 of the anti-tumor drug in combination with the test compound) and is used for evaluating the ability of the test compound to reduce drug resistance. The larger the fold decrease value is, the stronger its ability to reverse drug resistance is. The results were average values of three repetitive tests. Verapamil (P-glycoprotein modulator) is the positive control.

KB V1 cells = assay: SRB growth inhibition assay, KB V1; conditions: IC50 KB V1 / IC50 KB-3-1
[6] = 1 μM doxorubicin + 1 μM test compound
[7] = 1 μM doxorubicin + 2 μM test compound
[8] = 1 μM doxorubicin + 4 μM test compound

Row | Compound | Resistant ratio (HepG2-DR cells [1]) | Change in P-gp (MDR1) expression level (P-gp [2]) | Change in P-gp (MDR1) expression level (P-gp [3]) | Cell cycle distribution, G0/G1 (HepG2-DR cells [4]; [6]) [%] | Cell cycle distribution, G2/M (HepG2-DR cells [4]; [6]) [%] | Cell cycle distribution, S (HepG2-DR cells [4]; [6]) [%] | Cell cycle distribution, SubG1 (HepG2-DR cells [4]; [6]) [%] | Cell cycle distribution, G0/G1 (HepG2-DR cells [4]; [7]) [%] | Cell cycle distribution, G2/M (HepG2-DR cells [4]; [7]) [%] | Cell cycle distribution, S (HepG2-DR cells [4]; [7]) [%] | Cell cycle distribution, SubG1 (HepG2-DR cells [4]; [7]) [%] | Cell cycle distribution, G0/G1 (HepG2-DR cells [4]; [8]) [%] | Cell cycle distribution, G2/M (HepG2-DR cells [4]; [8]) [%] | Cell cycle distribution, S (HepG2-DR cells [4]; [8]) [%] | Cell cycle distribution, SubG1 (HepG2-DR cells [4]; [8]) [%] | Effect on cell cycle by itself (HepG2-DR cells [4]; 4 μM alone) | Cell cycle distribution, G0/G1 (HepG2-DR cells [4]; 4 μM alone) [%] | Cell cycle distribution, G2/M (HepG2-DR cells [4]; 4 μM alone) [%] | Cell cycle distribution, S (HepG2-DR cells [4]; 4 μM alone) [%] | Cell cycle distribution, SubG1 (HepG2-DR cells [4]; 4 μM alone) [%] | other results
1 | COc1ccc(C(=O)O[C@@H]2[C@@H](OC(=O)c3ccc(OC)c(OC)c3)c3c(ccc4ccc(=O)oc34)OC2(C)C)cc1OC (racemic) [trans-DMDBK, (±)-3′-O,4′-O-bis(3,4-dimethoxybenzoyl)-trans-khellactone] | 1.31 | no detectable alteration; also recorded: not observed | no detectable alteration; also recorded: not observed | 34.60 ± 2.58 | 49.53 ± 0.69 | 7.61 ± 3.69 | 3.31 ± 0.89 | 17.56 ± 2.20 | 67.89 ± 1.19 | 7.03 ± 2.34 | 5.30 ± 2.52 | 5.37 ± 1.06 | 81.56 ± 2.62 | 4.71 ± 3.62 | 5.11 ± 2.84 | no effect | 49.57 ± 0.15 | 34.41 ± 3.70 | 6.17 ± 1.55 | 1.33 ± 0.24 | Concentration of test compound that reduced the effective doxorubicin concentration (G2/M arrest) from 50 to 1 μM (HepG2-DR cells [4]): 4 µM; Reversing parameter: fold decrease of IC50 of Doxorubicin (HepG2-DR cells [5]; 2 μM test compound): 3.8 ± 1.6 fold; Reversing parameter: fold decrease of IC50 of Puromycin (HepG2-DR cells [5]; 2 μM test compound): 4.6 ± 1.4 fold; Reversing parameter: fold decrease of IC50 of Vinblastine (HepG2-DR cells [5]; 2 μM test compound): 1.5 ± 0.3 fold; Reversing parameter: fold decrease of IC50 of Doxorubicin (HepG2-DR cells [5]; 4 μM test compound): 58.2 ± 17.2 fold; Reversing parameter: fold decrease of IC50 of Puromycin (HepG2-DR cells [5]; 4 μM test compound): 28.5 ± 0.2 fold; Reversing parameter: fold decrease of IC50 of Vinblastine (HepG2-DR cells [5]; 4 μM test compound): 19.3 ± 10.4 fold; Resistant ratio (KB V1 cells): 0.53
2 | COc1ccc(/C=C/C(=O)O[C@@H]2[C@@H](OC(=O)/C=C/c3ccc(OC)c(OC)c3)c3c(ccc4ccc(=O)oc34)OC2(C)C)cc1OC (racemic) [trans-DMDCK, (±)-3′-O,4′-O-bis(3,4-dimethoxycinnamoyl)-trans-khellactone] | 1.36 | no detectable alteration; also recorded: not observed | no detectable alteration; also recorded: not observed | 34.29 ± 0.21 | 48.46 ± 2.52 | 8.80 ± 3.64 | 3.94 ± 0.77 | 21.21 ± 1.48 | 64.06 ± 3.56 | 5.79 ± 4.05 | 6.55 ± 0.12 | 6.03 ± 0.91 | 79.52 ± 0.66 | 5.70 ± 4.20 | 4.29 ± 1.99 | no effect | 47.46 ± 0.55 | 33.42 ± 1.98 | 7.97 ± 1.05 | 2.07 ± 0.06 | Concentration of test compound that reduced the effective doxorubicin concentration (G2/M arrest) from 50 to 1 μM (HepG2-DR cells [4]): 4 µM; Reversing parameter: fold decrease of IC50 of Doxorubicin (HepG2-DR cells [5]; 2 μM test compound): 8.0 ± 0.6 fold; Reversing parameter: fold decrease of IC50 of Puromycin (HepG2-DR cells [5]; 2 μM test compound): 5.6 ± 0.6 fold; Reversing parameter: fold decrease of IC50 of Vinblastine (HepG2-DR cells [5]; 2 μM test compound): 1.9 ± 0.0 fold; Reversing parameter: fold decrease of IC50 of Doxorubicin (HepG2-DR cells [5]; 4 μM test compound): 59.4 ± 18.5 fold; Reversing parameter: fold decrease of IC50 of Puromycin (HepG2-DR cells [5]; 4 μM test compound): 26.6 ± 6.4 fold; Reversing parameter: fold decrease of IC50 of Vinblastine (HepG2-DR cells [5]; 4 μM test compound): 13.9 ± 5.8 fold; Resistant ratio (KB V1 cells): 0.47
